Experimental findings from patent US11718637B2, “Prodrugs of 4′-C-substituted-2-halo-2′- deoxyadenosine nucleosides and methods of making and using the same” (Gilead Sciences, Inc., priority 2020, dated 2023) are described below.

Converted amounts (≈) assume the structure as drawn. Read-outs that look alike come from different tables or passages of the source.

For one series, the system named is HIV-1 (IIIB). Description: Antiviral assay in MT-4 cells. The class given is cell-based. The method, then:
(§1) Compounds were tested in a high-throughput 384-well assay format for their ability to inhibit the replication of HIV-1 (IIIB) in MT-4 cells. Compounds were serially diluted (1:3) in DMSO on 384-well polypropylene plates and further diluted 200-fold into complete RPMI media (10% FBS, 1% P/S) using the Biotek Micro Flow and Labcyte ECHO acoustic dispenser. Each plate contained up to 8 test compounds, with negative (No Drug Control) and 5 μM AZT positive controls. MT-4 cells were pre-infected with 10 μL of either RPMI (mock-infected) or a fresh 1:250 dilution of HIV-1 IIIB concentrated virus stock. Infected and uninfected MT-4 cells were further diluted in complete RPMI media and added to each plate using a Micro Flow dispenser. After 5 days incubation in a humidified and temperature-controlled incubator (37° C.), Cell Titer Glo (Promega) was added to the assay plates and chemiluminescence read using an Envision plate-reader. EC50 values were defined as the compound concentration that causes a 50% decrease in luminescence signal, and were calculated using a sigmoidal dose-response model to generate curve fits.

Series [1] in a line: Cytotoxicity assay in MT-4 cells. The class given is cell-based. The note with it: human; uninfected MT-4 cells, 5 days incubation, Cell Titer Glo. The method, then: as §1, with “fits. Assays were performed as above except uninfected MT-4 cells were added to each well containing test compound. In addition, 10 μM puromycin was added to the last column of each assay plate to assess a base level of cytotoxicity.” for “fits.”

Series [2] is described as follows: Kinetic solubility analysis (CLND). Format: physicochemical. The note with it: 24.2 °C, kinetic from dmso stock, from DMSO stocks, 1.0% DMSO, 24-hour incubation at ambient temperature, medium (0.1N HCl or PBS 7.4) not stated. The method, then:
Kinetic Solubility Analysis (CLND)
0.1N HCl: Hydrochloric acid, 0.1N standardized solution.
1×PBS, 7.4: Phosphate Buffered Saline solution 10×, PBS 50 mL was added to approximately 450 mL HPLC grade H2O. The volume of the solution was then adjusted to 500 mL for a total dilution factor of 1:10 and a final PBS concentration of 1×. The pH of the final solution was measured and found to be 7.4.
Kinetic Solubility from DMSO Stocks: 100-fold dilutions of each DMSO stock solution were prepared in singleton by combining 3 μL of DMSO stock with 297 μL of the appropriate media in a Millipore solubility filter plate with a […] polycarbonate filter membrane using Hamilton Starlet liquid handling. The final DMSO concentration is 1.0% and maximum theoretical compound concentration is 100 μM (assuming stock concentration of 10 mM). The filter plate was sealed. Following 24-hour incubation at ambient temperature (24.2-27.5° C.), the samples were vacuum filtered and the filtrates were collected in a 96 well polypropylene plate for analysis. The collection plate was sealed for analysis.
Filtrates were injected into the nitrogen detector for quantification. The results are reported here in μM.
Calculation of Results: The equimolar nitrogen response of the detector was calibrated using standards which spanned the dynamic range of the instrument from […] nitrogen. The filtrates were quantified with respect to this calibration curve. The calculated solubility values were corrected for background nitrogen present in the DMSO and the media used to prepare the samples. All reported values for compounds containing adjacent nitrogen atoms in a ring structure should be increased by ˜25%. […] The solubility results presented assume that the samples were free of nitrogen containing impurities and were stable under the assay conditions.

The mark [3] stands for this setting: Human immunodeficiency virus 1, MT4, 120 h, HIV-1 IIIB replication in MT-4 cells, 5 days incubation, Cell Titer Glo, read-out: EC50.

`C#C[C@]1(CO[P@@](=O)(N[C@@H](C)C(=O)OCC(CC)CC)Oc2ccccc2)O[C@@H](n2cnc3c(N)nc(F)nc32)C[C@@H]1O` (single isomer, unassigned) [Compound 4] had a 50% effective concentration (EC50) in the series with HIV-1 (IIIB) (Human immunodeficiency virus 1, IIIB, MT4, 120 h) of 8 nM.

As to `C#C[C@]1(COC(=O)C(C)C)O[C@@H](n2cnc3c(N)nc(F)nc32)C[C@@H]1OC(=O)C(C)C` [Compound 1, (2R,3S,5R)-5-(6-amino-2-fluoro-9H-purin-9-yl)-2-ethynyl-2-((isobutyryloxy)methyl)tetrahydrofuran-3-yl isobutyrate], the EC50 in the series on HIV-1 (IIIB) (setting [3]) stood at 7 nM. This molecule showed a CC50 at 5 days in series [1] of 37.3 µM. The kinetic solubility at 24 h in series [2] was 6.6 µM (≈ 2.86 µg/mL).

On to `C#C[C@]1(CO)O[C@@H](n2cnc3c(NC(=O)OCCCCCCCCCCCCCC)nc(F)nc32)C[C@@H]1O` [Compound 2, Tetradecyl (9-((2R,4S,5R)-5-ethynyl-4-hydroxy-5-(hydroxymethyl)tetrahydrofuran-2-yl)-2-fluoro-9H-purin-6-yl)carbamate], for which, in the series with HIV-1 (IIIB) (setting [3]), the EC50 was 70 nM. Also, the CC50 at 5 days in series [1] stood at 13.4 µM. The solubility (kinetic) at 24 h in series [2] worked out at 1.2 µM (≈ 0.64 µg/mL).

Consider `C#C[C@]1(CO)O[C@@H](n2cnc3c(NC(=O)OCCCCCCCCCCCCCCCC)nc(F)nc32)C[C@@H]1O` [Compound 3, Hexadecyl (9-((2R,4S,5R)-5-ethynyl-4-hydroxy-5-(hydroxymethyl)tetrahydrofuran-2-yl)-2-fluoro-9H-purin-6-yl)carbamate], for which the EC50 in the series with HIV-1 (IIIB) (setting [3]) was found to be 60 nM. In addition, it took 11.8 µM to reach half-maximal cytotoxicity in series [1] (CC50 at 5 days).

In the case of `C#C[C@]1(COC(=O)c2ccccc2COC(=O)CCCCCCCCCCCCCCC)O[C@@H](n2cnc3c(N)nc(F)nc32)C[C@@H]1O` [Compound 5], in the series with HIV-1 (IIIB) (setting [3]), the EC50 turned out to be 8 nM. Besides, the CC50 at 5 days in series [1] was over 50 µM. For the same molecule, in series [2], the solubility (kinetic) at 24 h is under 1 µM.

On to `C#C[C@]1(CO)O[C@@H](n2cnc3c(N)nc(F)nc32)C[C@@H]1OC(=O)c1ccccc1COC(=O)CCCCCCCCCCCCCCC` [Compound 6, (2R,3S,5R)-5-(6-amino-2-fluoro-4,5-dihydro-9H-purin-9-yl)-2-ethynyl-2-(hydroxymethyl)tetrahydrofuran-3-yl 2-((palmitoyloxy)methyl)benzoate], for which the EC50 in the series on HIV-1 (IIIB) (setting [3]) was determined as 29 nM. This molecule also displayed a CC50 at 5 days in series [1] of over 50 µM. This molecule yielded a kinetic solubility at 24 h in series [2] of under 1 µM.

`C#C[C@]1(COC(=O)c2ccccc2COC(=O)CCCCCCCCCCCCCCC)O[C@@H](n2cnc3c(N)nc(F)nc32)C[C@@H]1OC(=O)c1ccccc1COC(=O)CCCCCCCCCCCCCCC` [Compound 7, (2R,3S,5R)-5-(6-amino-2-fluoro-9H-purin-9-yl)-2-ethynyl-2-(((2-((palmitoyloxy)methyl)benzoyl)oxy)methyl)tetrahydrofuran-3-yl 2-((palmitoyloxy)methyl)benzoate]: the EC50 with HIV-1 (IIIB) (setting [3]) was over 500 nM. In addition, the CC50 at 5 days in series [1] was over 50 µM. In series [2], this molecule came in with a kinetic solubility at 24 h of 2 µM (≈ 2.08 µg/mL).

`C#C[C@]1(COC(=O)CCCCCCCCCCCCC)O[C@@H](n2cnc3c(N)nc(F)nc32)C[C@@H]1O` [Compound 8, ((2R,3S,5R)-5-(6-amino-2-fluoro-9H-purin-9-yl)-2-ethynyl-3-hydroxytetrahydrofuran-2-yl)methyl tetradecanoate]: the EC50 in the series with HIV-1 (IIIB) (setting [3]) stood at 3 nM. For the same molecule, the CC50 at 5 days in series [1] was over 20.2 µM. In addition, in series [2], the solubility (kinetic) at 24 h is under 1 µM.

With `C#C[C@]1(CO)O[C@@H](n2cnc3c(N)nc(F)nc32)C[C@@H]1OC(=O)CCCCCCCCCCCCC` [Compound 9, (2R,3S,5R)-5-(6-amino-2-fluoro-9H-purin-9-yl)-2-ethynyl-2-(hydroxymethyl)tetrahydrofuran-3-yl tetradecanoate], the EC50 in the series with HIV-1 (IIIB) (setting [3]) turned out to be 4 nM. Moreover, in series [1], the CC50 at 5 days is over 23 µM. The same molecule returned a kinetic solubility at 24 h in series [2] of under 1 µM.

As for `C#C[C@]1(COC(=O)CCCCCCCCCCCCC)O[C@@H](n2cnc3c(N)nc(F)nc32)C[C@@H]1OC(=O)CCCCCCCCCCCCC` [Compound 10, (2R,3S,5R)-5-(6-amino-2-fluoro-9H-purin-9-yl)-2-ethynyl-2-((tetradecanoyloxy)methyl)tetrahydrofuran-3-yl tetradecanoate], the EC50 with HIV-1 (IIIB) (setting [3]) was over 500 nM. This molecule also gave a CC50 at 5 days in series [1] of over 50 µM. Also, the kinetic solubility at 24 h in series [2] is under 1 µM.

With `C#C[C@]1(COC(=O)CCCCCCCCCCCCCCCCC)O[C@@H](n2cnc3c(N)nc(F)nc32)C[C@@H]1O` [Compound 11, ((2R,3S,5R)-5-(6-amino-2-fluoro-9H-purin-9-yl)-2-ethynyl-3-hydroxytetrahydrofuran-2-yl)methyl stearate], the EC50 in the series with HIV-1 (IIIB) (setting [3]) was determined as 7 nM. The CC50 at 5 days in series [1] was over 41.5 µM. This molecule also registered a solubility (kinetic) at 24 h in series [2] of under 1 µM.

With `C#C[C@]1(COC(=O)OCCCCCCCCCCCC)O[C@@H](n2cnc3c(N)nc(F)nc32)C[C@@H]1O` [Compound 12, ((2R,3S,5R)-5-(6-amino-2-fluoro-9H-purin-9-yl)-2-ethynyl-3-hydroxytetrahydrofuran-2-yl)methyl dodecyl carbonate], the EC50 with HIV-1 (IIIB) (setting [3]) worked out at 6 nM. The molecule also registered a CC50 at 5 days in series [1] of 17 µM. In addition, the solubility (kinetic) at 24 h in series [2] is under 1 µM.

In the case of `C#C[C@]1(COC(=O)OCCCCCCCCCCCC)O[C@@H](n2cnc3c(N)nc(F)nc32)C[C@@H]1OC(=O)OCCCCCCCCCCCC` [Compound 13, ((2R,3S,5R)-5-(6-amino-2-fluoro-9H-purin-9-yl)-3-(((dodecyloxy)carbonyl)oxy)-2-ethynyltetrahydrofuran-2-yl)methyl dodecyl carbonate], the EC50 in the series with HIV-1 (IIIB) (setting [3]) is over 500 nM. For the same molecule, the CC50 at 5 days in series [1] came out at 5.5 µM. Moreover, in series [2], the solubility (kinetic) at 24 h was under 1 µM.

For the molecule `C#C[C@]1(COC(=O)CC(C)(C)c2c(C)cc(C)cc2OC(C)=O)O[C@@H](n2cnc3c(N)nc(F)nc32)C[C@@H]1O` [Compound 14, ((2R,3S,5R)-5-(6-amino-2-fluoro-9H-purin-9-yl)-2-ethynyl-3-hydroxytetrahydrofuran-2-yl)methyl 3-(2-acetoxy-4,6-dimethylphenyl)-3-methylbutanoate], the EC50 with HIV-1 (IIIB) (setting [3]) turned out to be 4 nM. The same molecule had a CC50 at 5 days in series [1] of over 21.6 µM. Moreover, the kinetic solubility at 24 h in series [2] amounted to 37 µM (≈ 20 µg/mL).

On to `C#C[C@]1(CO)O[C@@H](n2cnc3c(N)nc(F)nc32)C[C@@H]1OC(=O)CC(C)(C)c1c(C)cc(C)cc1OC(C)=O` [Compound 15, (2R,3S,5R)-5-(6-amino-2-fluoro-9H-purin-9-yl)-2-ethynyl-2-(hydroxymethyl)tetrahydrofuran-3-yl 3-(2-acetoxy-4,6-dimethylphenyl)-3-methylbutanoate], for which, in the series with HIV-1 (IIIB) (setting [3]), the EC50 came out at 3 nM. The midpoint of cytotoxicity in series [1], the CC50 at 5 days, lay at 11.8 µM. The molecule also gave a kinetic solubility at 24 h in series [2] of 25.1 µM (≈ 13.5 µg/mL).

As to `C#C[C@]1(COC(=O)CC(C)(C)c2c(C)cc(C)cc2OC(C)=O)O[C@@H](n2cnc3c(N)nc(F)nc32)C[C@@H]1OC(=O)CC(C)(C)c1c(C)cc(C)cc1OC(C)=O` [Compound 16, ((2R,3S,5R)-3-((3-(2-acetoxy-4,6-dimethylphenyl)-3-methylbutanoyl)oxy)-5-(6-amino-2-fluoro-9H-purin-9-yl)-2-ethynyltetrahydrofuran-2-yl)methyl 3-(2-acetoxy-4,6-dimethylphenyl)-3-methylbutanoate], the EC50 in the series with HIV-1 (IIIB) (setting [3]) came out at 10 nM. The CC50 at 5 days in series [1] is 15.7 µM. Also, in series [2], the kinetic solubility at 24 h was under 1 µM.
